# Laboratory results reported in patent publication US9642861B2, “Methods of treating oral mucositis” (priority 2006, dated 2017).
# Values joined by “and” are separate entries in the source; they are usually repeats but may differ in a detail not shown here. Equal values may be shown once.
# System: oral mucositis induced in hamsters by acute radiation (40 Gy to left buccal cheek pouch)
# Assay: ACT-03 (Example 2): acute radiation model of oral mucositis in hamsters, mucositis scoring
# Type: in vivo, Syrian Golden Hamsters
# Design: key to Mucositis score / Mucositis Scores: 0: Pouch completely healthy. No erythema or vasodilation.; 1: Light to severe erythema and vasodilation. No erosion of mucosa.; 2: Severe erythema and vasodilation. Erosion of superficial aspects of mucosa leaving denuded areas. Decreased stippling of mucosa.; 3: Formation of off-white ulcers in one or more places. Ulcers may have a yellow/gray due to pseudomembrane. Cumulative size of ulcers should equal about ¼ of the pouch. Severe erythema and vasodilation.; 4: Cumulative seize of ulcers should equal about ½ of the pouch. Loss of pliability. Severe erythema and vasodilation.; 5: Virtually all of pouch is ulcerated. Loss of pliability (pouch can only partially be extracted from mouth); peak mean mucositis score: scale not given here
# Details: for Mucositis Scores: first study, single animal, blinded scorer; for Mucositis score: individual animal, 2 blinded scorers
# Description: The acute radiation model in hamsters, developed by the Principal Investigator, has proven to be an accurate, efficient and cost-effective technique to provide a preliminary evaluation of anti-mucositis compounds (9). The course of mucositis in this model is well defined and results in peak scores approximately 14-16 Days following radiation. The acute model has little systemic toxicity, resulting in few hamster deaths, thus permitting the use of smaller groups (N=7-8) for initial efficacy studies. It has also been used to study specific mechanistic elements in the pathogenesis of mucositis. Molecules that show efficacy in the acute radiation model may be further evaluated in the more complex models of fractionated radiation, chemotherapy, or concomitant therapy.
# In this study, an acute radiation dose of 40 Gy on day 0 was administered locally to the cheek pouch. Clinically significant mucositis was observed on days 12 through 28.
# Seventy-two male Syrian Golden Hamsters were divided randomly into 9 groups of 8 animals and given an acute radiation dose of 40 Gy directed to their left buccal cheek pouch. This was accomplished by anesthetizing the animals and everting the left buccal pouch, while protecting the rest of the animal with a lead shield. […] Mucositis was evaluated clinically starting on Day 6, and continued on alternate days until day 28.
# The grade of mucositis was scored, beginning on day 6, and for every second day thereafter, through and including day 28 (for scoring scheme, see Table 6 and FIG. 8). The effect on mucositis of each drug treatment compared to ip vehicle-treated controls was assessed according to the following parameters:
# The difference in the number of days hamsters in each group have ulcerative (score≧3) mucositis.
# On each evaluation day, the number of animals with a blinded mucositis score of ≧3 in each drug treatment group was compared to the vehicle-treated control group. Differences were compared on a cumulative basis and statistical significance was determined by chi-square analysis. Efficacy, in this analysis, is defined as a significant reduction in the number of days that a group of animals had ulcerations (scores≧3) when compared to the control group.
# For each evaluation day the scores of the control group were compared to those of the treated groups using non-parametric rank sum analysis. Treatment success was considered as a statistically significant lowering of scores in the treated group on 2 or more days from day 6 to day 28.
# All seventy-two (72) male Syrian Golden Hamsters were given an acute radiation dose of 40 Gy directed to their left buccal cheek pouch. This was accomplished by anesthetizing the animals and everting the left buccal pouch, while protecting the rest of the animal with a lead shield. […] Mucositis was evaluated clinically starting on day 6, and continuing on alternate days until day 28. The study timeline is depicted in FIG. 7. Dose levels were determined based on the results of a previous acute toxicity study (data not published), and in the prior mucositis study of Example 1, shown in Table 5.
# Mucositis was induced using a standardized acute radiation protocol. A single dose of radiation (40 Gy/dose) was administered to all animals on day 0. Radiation was generated with a 250 kilovolt potential (15-ma) source at a focal distance of 50 cm, hardened with a 0.35 mm Cu filtration system. Irradiation targeted the left buccal pouch mucosa at a rate of 3.2 Gy/minute. Prior to irradiation, animals were anesthetized with an intra-peritoneal injection of Ketamine (160 mg/kg) and Xylazine (8 mg/kg). The left buccal pouch was everted, fixed and isolated using a lead shield.
# The mucositis score, weight change and survival were measured throughout the study as described above. For the evaluation of mucositis, the animals were anesthetized with isoflurane and the left pouch everted. […]
# [1] = group 2: ip 30 mg/kg once daily day −1 to 3
# [2] = group 2: ip 30 mg/kg qd day −1 to 3
# [3] = group 3: ip 3 mg/kg bid day −1 to 3
# [4] = group 4: ip 10 mg/kg bid day −1 to 3
# [5] = group 4: ip 10 mg/kg twice daily day −1 to 3
# [6] = group 5: ip 30 mg/kg bid day −1 to 3
# [7] = group 5: ip 30 mg/kg twice daily day −1 to 3
# [8] = group 6: ip 30 mg/kg once daily day 0 to 3
# [9] = group 6: ip 30 mg/kg qd day 0 to 3
# [10] = group 7: ip 30 mg/kg bid day 0 to 3
# [11] = group 7: ip 30 mg/kg twice daily day 0 to 3
# [12] = group 8: ip 30 mg/kg twice daily on day 0
# [13] = group 9: ip 30 mg/kg bid day 0 & 7
compound,measurement,setting,value
[Cl-].[Cl-].[Mn+2].c1cc2nc(c1)CN[C@@H]1CCCC[C@H]1NCCN[C@@H]1CCCC[C@H]1NC2 [M40403],Mucositis Scores,"Group 8: 30 mg/kg/dose twice daily on day 0, day 6, 30 mg/kg",0 (4×) and 1 (2×)
same,Mucositis Scores,"Group 8: 30 mg/kg/dose twice daily on day 0, day 8",0
same,Mucositis Scores,"Group 8: 30 mg/kg/dose twice daily on day 0, day 10, 30 mg/kg",0 (3×) and 1 (3×)
same,Mucositis Scores,"Group 8: 30 mg/kg/dose twice daily on day 0, day 12, 30 mg/kg",2 (5×) and 1
same,Mucositis Scores,"Group 8: 30 mg/kg/dose twice daily on day 0, day 14, 30 mg/kg",3 (4×) and 2 (2×)
same,Mucositis Scores,"Group 8: 30 mg/kg/dose twice daily on day 0, day 16, 30 mg/kg",2 (4×) and 3 (2×)
same,Mucositis Scores,"Group 8: 30 mg/kg/dose twice daily on day 0, day 18, 30 mg/kg",1 (3×) and 2 and 3 (2×)
same,Mucositis Scores,"Group 8: 30 mg/kg/dose twice daily on day 0, day 20, 30 mg/kg",2 (2×) and 1 (2×) and 3 (2×)
same,Mucositis Scores,"Group 8: 30 mg/kg/dose twice daily on day 0, day 22",2
same,Mucositis Scores,"Group 8: 30 mg/kg/dose twice daily on day 0, day 24, 30 mg/kg",0 (3×) and 2 (2×) and 1
same,Mucositis Scores,"Group 8: 30 mg/kg/dose twice daily on day 0, day 26, 30 mg/kg",1 (2×) and 0 (3×) and 2
same,Mucositis Scores,"Group 8: 30 mg/kg/dose twice daily on day 0, day 28, 30 mg/kg",0 (3×) and 1 (3×)
same,Mucositis Scores,"Group 9: 30 mg/kg/dose twice daily on day 0 and on day 7, day 6, 30 mg/kg",0 and 1
same,Mucositis Scores,"Group 9: 30 mg/kg/dose twice daily on day 0 and on day 7, day 8, 30 mg/kg",0
same,Mucositis Scores,"Group 9: 30 mg/kg/dose twice daily on day 0 and on day 7, day 10, 30 mg/kg",1 and 0
same,Mucositis Scores,"Group 9: 30 mg/kg/dose twice daily on day 0 and on day 7, day 12, 30 mg/kg",2
same,Mucositis Scores,"Group 9: 30 mg/kg/dose twice daily on day 0 and on day 7, day 14, 30 mg/kg",2
same,Mucositis Scores,"Group 9: 30 mg/kg/dose twice daily on day 0 and on day 7, day 16, 30 mg/kg",3
same,Mucositis Scores,"Group 9: 30 mg/kg/dose twice daily on day 0 and on day 7, day 18, 30 mg/kg",3
same,Mucositis Scores,"Group 9: 30 mg/kg/dose twice daily on day 0 and on day 7, day 20, 30 mg/kg",2
same,Mucositis Scores,"Group 9: 30 mg/kg/dose twice daily on day 0 and on day 7, day 22, 30 mg/kg",2 (2×) and 0
same,Mucositis Scores,"Group 9: 30 mg/kg/dose twice daily on day 0 and on day 7, day 24, 30 mg/kg",0 and 1 (2×)
same,Mucositis Scores,"Group 9: 30 mg/kg/dose twice daily on day 0 and on day 7, day 26, 30 mg/kg",2 and 1 (2×)
same,Mucositis Scores,"Group 9: 30 mg/kg/dose twice daily on day 0 and on day 7, day 28, 30 mg/kg",1 and 2 and 0
same,day of peak mean mucositis score,[1],16 days
same,peak mean mucositis score,[1],2.8
same,"Chi Sq v control, days with mucositis score >=3",[2],4.4860
same,Days <3 (animal days with a mucositis score below 3),[2],108
same,Days >=3 (animal days with a mucositis score of three or more),[2],36
same,% Days >=3 (percentage of animal days with a mucositis score of 3 or higher),"group 2: ip 30 mg/kg qd day −1 to 3, 30 mg/kg",25%
same,"Chi Sq v control, days with mucositis score >=3",[3],5.3950
same,Days <3 (animal days with a mucositis score below 3),[3],144
same,Days >=3 (animal days with a mucositis score of three or more),[3],48
same,% Days >=3 (percentage of animal days with a mucositis score of 3 or higher),"group 3: ip 3 mg/kg bid day −1 to 3, 3 mg/kg",25%
same,peak mean mucositis score,group 3: ip 3 mg/kg twice daily day −1 to 3,2.9
same,"Chi Sq v control, days with mucositis score >=3",[4],1.1996
same,Days <3 (animal days with a mucositis score below 3),[4],136
same,Days >=3 (animal days with a mucositis score of three or more),[4],56
same,% Days >=3 (percentage of animal days with a mucositis score of 3 or higher),"group 4: ip 10 mg/kg bid day −1 to 3, 10 mg/kg",29.2% and 29.17%
same,day of peak mean mucositis score,[5],16 days
same,peak mean mucositis score,[5],3.0
same,"Chi Sq v control, days with mucositis score >=3",[6],7.229
same,Days <3 (animal days with a mucositis score below 3),[6],112
same,Days >=3 (animal days with a mucositis score of three or more),[6],32
same,% Days >=3 (percentage of animal days with a mucositis score of 3 or higher),"group 5: ip 30 mg/kg bid day −1 to 3, 30 mg/kg",22.2% and 22.22%
same,day of peak mean mucositis score,[7],16 days
same,peak mean mucositis score,[7],2.8
same,Mucositis score,"group 6, day 6",1 and 0 (4×)
same,Mucositis score,"group 6, day 8",0 (4×) and 1
same,Mucositis score,"group 6, day 10",0 (4×) and 1
same,Mucositis score,"group 6, day 12",2 (4×) and 0
same,Mucositis score,"group 6, day 14",2 (3×) and 3 (2×)
same,Mucositis score,"group 6, day 16",4 and 3 (4×)
same,Mucositis score,"group 6, day 18",4 and 3 (2×) and 2 (2×)
same,Mucositis score,"group 6, day 20",4 and 3 (2×) and 2 (2×)
same,Mucositis score,"group 6, day 22",4 and 2 (2×) and 0 and 1
same,Mucositis score,"group 6, day 24",4 and 2 (4×)
same,Mucositis score,"group 6, day 26",3 and 2 (3×) and 1
same,Mucositis score,"group 6, day 28",2 (2×) and 0 and 1 (2×)
same,day of peak mean mucositis score,[8],16 days
same,peak mean mucositis score,[8],3.2
same,"Chi Sq v control, days with mucositis score >=3",[9],1.029
same,Days <3 (animal days with a mucositis score below 3),[9],100
same,Days >=3 (animal days with a mucositis score of three or more),[9],44
same,% Days >=3 (percentage of animal days with a mucositis score of 3 or higher),"group 6: ip 30 mg/kg qd day 0 to 3, 30 mg/kg",30.6% and 30.56%
same,Mucositis score,"group 7, day 6",0
same,Mucositis score,"group 7, day 8",0 (2×) and 1
same,Mucositis score,"group 7, day 10",1 and 0 (2×)
same,Mucositis score,"group 7, day 12",2
same,Mucositis score,"group 7, day 14",2
same,Mucositis score,"group 7, day 16",1 (2×) and 2
same,Mucositis score,"group 7, day 18",1 and 0 and 3
same,Mucositis score,"group 7, day 20",1 (2×) and 0
same,Mucositis score,"group 7, day 22",0 and 1 (2×) and 2
same,Mucositis score,"group 7, day 24",1 (2×) and 0 (2×)
same,Mucositis score,"group 7, day 26",1 (3×) and 0
same,Mucositis score,"group 7, day 28",1 (3×) and 0
same,"Chi Sq v control, days with mucositis score >=3",[10],38.3440
same,Days <3 (animal days with a mucositis score below 3),[10],174
same,Days >=3 (animal days with a mucositis score of three or more),[10],18
same,% Days >=3 (percentage of animal days with a mucositis score of 3 or higher),"group 7: ip 30 mg/kg bid day 0 to 3, 30 mg/kg",9.4% and 9.38%
same,day of peak mean mucositis score,[11],16 days
same,peak mean mucositis score,[11],2.2
same,"Chi Sq v control, days with mucositis score >=3",group 8: ip 30 mg/kg bid day 0,25.681
same,Days <3 (animal days with a mucositis score below 3),group 8: ip 30 mg/kg bid day 0,166
same,Days >=3 (animal days with a mucositis score of three or more),group 8: ip 30 mg/kg bid day 0,26
same,% Days >=3 (percentage of animal days with a mucositis score of 3 or higher),"group 8: ip 30 mg/kg bid day 0, 30 mg/kg",13.5% and 13.54%
same,day of peak mean mucositis score,[12],14 days
same,peak mean mucositis score,[12],2.4
same,"Chi Sq v control, days with mucositis score >=3",[13],19.113
same,Days <3 (animal days with a mucositis score below 3),[13],142
same,Days >=3 (animal days with a mucositis score of three or more),[13],26
same,% Days >=3 (percentage of animal days with a mucositis score of 3 or higher),"group 9: ip 30 mg/kg bid day 0 & 7, 30 mg/kg",15.5% and 15.48%
same,peak mean mucositis score,group 9: ip 30 mg/kg twice daily on day 0 and day 7,2.4
